pIC50: −log10 of the molar value. The source made the active and inactive calls. The rule behind the calls is not given here.
Key:
[1] = molecular target: T1, Aldo-keto reductase family 1 member B1 (Bos taurus, UniProt P16116); test: Inhibitory concentration was determined against partially purified calf lens aldose reductase using glyceraldehyde as a substrate; 10e-6/10e-7
[2] = system: Rattus norvegicus; test: Dose required for reduction of sorbitol accumulation in the sciatic nerve in streptozotocin-diabetic rats in vivo; assay type: functional
[3] = molecular target: T1, Aldo-keto reductase family 1 member B1; test: Inhibitory concentration was determined against partially purified calf lens aldose reductase using glyceraldehyde as a substrate
[4] = molecular target: T1, Aldo-keto reductase family 1 member B1; test: Inhibitory concentration was determined against partially purified calf lens aldose reductase using glyceraldehyde as a substrate; 10e-7/10e-8
[5] = system: Rattus norvegicus; test: Dose required for reduction of sorbitol accumulation in the sciatic nerve in streptozotocin-diabetic rats in vivo; Inactive; assay type: functional, organism-based
[6] = molecular target: T1, Aldo-keto reductase family 1 member B1; test: Inhibitory concentration was determined against partially purified calf lens aldose reductase using glyceraldehyde as a substrate; 10e-4/10e-5
[7] = Rattus norvegicus, Sciatic nerve, read-out: ED50

pIC50 [3]	Compound	ED50 [2, 7] [mg/kg]	other results
4.00	O=C1NC(=O)C2(CCOc3ccccc32)O1 (stereo not given)		
6.00	O=C1NC(=O)C2(CCOc3ccc(Br)cc32)O1 (stereo not given)	> 1.5	
5.00	O=C1NC(=O)C2(CCSc3ccc(F)cc32)O1 (stereo not given)	25	
4.00	O=C1NC(=O)C2(CCc3ccccc32)O1 (stereo not given)	> 25	

The remaining lines, values behind:

Compound	pIC50 [3]	ED50 [2, 7] [mg/kg]	other results
O=C1NC(=O)C2(CCOc3ccc(Cl)cc32)O1 (stereo not given)		> 1.5	pIC50 [1]: 5.00
O=C1NC(=O)C2(CCOc3ccc(F)cc32)O1 (stereo not given)		> 1.5	pIC50 [1]: 5.00
O=C1N=C(O)OC12CCOc1c(Cl)cc(Cl)cc12 (single isomer, unassigned; (+))	4.00		
O=C1NC(=O)C2(CCSc3ccc(Cl)cc32)O1 (stereo not given)		> 1.5	pIC50 [1]: 5.00
O=C1NC(=O)C2(CCSc3ccccc32)O1 (stereo not given)	5.00	25	
O=C1NC(=O)C2(CCOc3c(Cl)cc(Cl)cc32)O1 (stereo in doubt; 14)		> 1.5	pIC50 [4]: 6.00
O=C1NC(=O)C2(CCCc3ccccc32)O1 (stereo not given)	4.00		ED50 [5]: inactive
O=C1NC(=O)C2(CCOc3c(Cl)cc(Cl)cc32)O1 (stereo in doubt; 23)			ED50 [2]: 1.5 mg/kg
O=C1N=C(O)OC12CCOc1ccc(Cl)cc12 (single isomer, unassigned; (-))	6.00		
O=C1N=C(O)OC12CCOc1ccc(Cl)cc12 (single isomer, unassigned; (+))			pIC50 [6]: 3.00
Cc1cc(Cl)cc2c1OCCC21OC(=O)NC1=O (stereo not given)		> 1.5	pIC50 [1]: 5.00

From ChEMBL document CHEMBL1121986, “Spiro oxazolidinedione aldose reductase inhibitors” (J Med Chem, 1982)
